Assay results as given in US8877748B2, “Heterocyclic fused anthraquinone derivatives, manufacturing method and pharmaceutical composition using thereof” (National Defense Medical Center, priority 2012, dated 2014).

How the values were obtained:
UACC-257 = assay: NCI one-dose screening, melanoma UACC-257; assay type: cell-based, human; settings: 10 μM
SK-MEL-2 = assay: NCI one-dose screening, melanoma SK-MEL-2; assay type: cell-based, human; settings: 10 μM
HOP-92 = assay: NCI one-dose screening, non-small cell lung cancer HOP-92; assay type: cell-based, human; settings: 10 μM
NCI-H23 = assay: NCI one-dose screening, non-small cell lung cancer NCI-H23; assay type: cell-based, human; settings: 10 μM
K562cell line = assay: NCI one-dose screening, leukemia K562; assay type: cell-based, human; settings: 10 μM
NCI-H460 = assay: NCI one-dose screening, non-small cell lung cancer NCI-H460; assay type: cell-based, human; settings: 10 μM
HT29 = assay: NCI one-dose screening, colon cancer HT29; assay type: cell-based, human; settings: 10 μM
UO-31 = assay: NCI one-dose screening, renal cancer UO-31; assay type: cell-based, human; settings: 10 μM
EKVX = assay: NCI one-dose screening, non-small cell lung cancer EKVX; assay type: cell-based, human; settings: 10 μM
MDA, -MB-435 = assay: NCI one-dose screening, breast cancer MDA, -MB-435; assay type: cell-based, human; settings: 10 μM; listed under Melanoma
[1] = tested on: PC-3 prostate cancer cell line; assay: SRB assay cell viability, PC-3 prostate cancer cell line; assay type: cell-based, human; settings: Homo sapiens, PC-3 prostate cancer cell line, Table II prints no unit, μM printed, read-out: SRB assay: 50% inhibition of cancer cell proliferation of sample concentration (IC50) of PC-3 prostate cancer cell line
MDA-MB-468 = assay: NCI one-dose screening, breast cancer MDA-MB-468; assay type: cell-based, human; settings: 10 μM
[2] = NCI one-dose screening, renal cancer A489; assay type: cell-based, human; settings: 10 μM
NCl/ADR-RES = assay: NCI one-dose screening, breast cancer NCl/ADR-RES; assay type: cell-based, human; settings: 10 μM; listed under Ovarian cancer
786-O = assay: NCI one-dose screening, renal cancer 786-O; assay type: cell-based, human; settings: 10 μM
NCI-H522 = assay: NCI one-dose screening, non-small cell lung cancer NCI-H522; assay type: cell-based, human; settings: 10 μM
OVCAR-3 = assay: NCI one-dose screening, ovarian cancer OVCAR-3; assay type: cell-based, human; settings: 10 μM
MOLT-4 = assay: NCI one-dose screening, leukemia MOLT-4; assay type: cell-based, human; settings: 10 μM
UACC-62 = assay: NCI one-dose screening, melanoma UACC-62; assay type: cell-based, human; settings: 10 μM
SK-MEL-28 = assay: NCI one-dose screening, melanoma SK-MEL-28; assay type: cell-based, human; settings: 10 μM
SR = assay: NCI one-dose screening, leukemia SR; assay type: cell-based, human; settings: 10 μM
PC-3 = assay: NCI one-dose screening, prostate cancer PC-3; assay type: cell-based, human; settings: 10 μM
IGROV1 = assay: NCI one-dose screening, ovarian cancer IGROV1; assay type: cell-based, human; settings: 10 μM
BT-549 = assay: NCI one-dose screening, breast cancer BT-549; assay type: cell-based, human; settings: 10 μM
SNB-75 = assay: NCI one-dose screening, CNS cancer SNB-75; assay type: cell-based, human; settings: 10 μM
LOX IMVI = assay: NCI one-dose screening, melanoma LOX IMVI; assay type: cell-based, human; settings: 10 μM
SF-539 = assay: NCI one-dose screening, CNS cancer SF-539; assay type: cell-based, human; settings: 10 μM
MALME-3M = assay: NCI one-dose screening, melanoma MALME-3M; assay type: cell-based, human; settings: 10 μM
SF-268 = assay: NCI one-dose screening, CNS cancer SF-268; assay type: cell-based, human; settings: 10 μM
HS 578-T = assay: NCI one-dose screening, breast cancer HS 578-T; assay type: cell-based, human; settings: 10 μM; Breast cancer
OVCAR-5 = assay: NCI one-dose screening, ovarian cancer OVCAR-5; assay type: cell-based, human; settings: 10 μM
DU145 = assay: NCI one-dose screening, prostate cancer DU145; assay type: cell-based, human; settings: 10 μM
SNB-19 = assay: NCI one-dose screening, CNS cancer SNB-19; assay type: cell-based, human; settings: 10 μM
CAKI-1 = assay: NCI one-dose screening, renal cancer CAKI-1; assay type: cell-based, human; settings: 10 μM
NCI-H226 = assay: NCI one-dose screening, non-small cell lung cancer NCI-H226; assay type: cell-based, human; settings: 10 μM
HCC-2998 = assay: NCI one-dose screening, colon cancer HCC-2998; assay type: cell-based, human; settings: 10 μM
HOP-62 = assay: NCI one-dose screening, non-small cell lung cancer HOP-62; assay type: cell-based, human; settings: 10 μM
KM12 = assay: NCI one-dose screening, colon cancer KM12; assay type: cell-based, human; settings: 10 μM
SK-OV-3 = assay: NCI one-dose screening, ovarian cancer SK-OV-3; assay type: cell-based, human; settings: 10 μM
TK-10 = assay: NCI one-dose screening, renal cancer TK-10; assay type: cell-based, human; settings: 10 μM
ACHN = assay: NCI one-dose screening, renal cancer ACHN; assay type: cell-based, human; settings: 10 μM
SK-MEL-5 = assay: NCI one-dose screening, melanoma SK-MEL-5; assay type: cell-based, human; settings: 10 μM
T-47D = assay: NCI one-dose screening, breast cancer T-47D; assay type: cell-based, human; settings: 10 μM
OVCAR-8 = assay: NCI one-dose screening, ovarian cancer OVCAR-8; assay type: cell-based, human; settings: 10 μM
SN12C = assay: NCI one-dose screening, renal cancer SN12C; assay type: cell-based, human; settings: 10 μM
HL-60, TB = assay: NCI one-dose screening, leukemia HL-60, TB; assay type: cell-based, human; settings: 10 μM
U251 = assay: NCI one-dose screening, CNS cancer U251; assay type: cell-based, human; settings: 10 μM
HCT-116 = assay: NCI one-dose screening, colon cancer HCT-116; assay type: cell-based, human; settings: 10 μM
RXF, 393 = assay: NCI one-dose screening, renal cancer RXF, 393; assay type: cell-based, human; settings: 10 μM
MDA-MB-231/ATCC = assay: NCI one-dose screening, breast cancer MDA-MB-231/ATCC; assay type: cell-based, human; settings: 10 μM
human tumor cell lines = assay: NCI one-dose screening, Mean / Delta / Range of growth percent over all tested cell lines; assay type: cell-based; settings: 10 μM
M14 = assay: NCI one-dose screening, melanoma M14; assay type: cell-based, human; settings: 10 μM
PRMI-8226 cell line = assay: NCI one-dose screening, leukemia PRMI-8226; assay type: cell-based, human; settings: 10 μM
COLO 205 = assay: NCI one-dose screening, colon cancer COLO 205; assay type: cell-based, human; settings: 10 μM
SF-295 = assay: NCI one-dose screening, CNS cancer SF-295; assay type: cell-based, human; settings: 10 μM
MCF7 = assay: NCI one-dose screening, breast cancer MCF7; assay type: cell-based, human; settings: 10 μM
HCT-15 = assay: NCI one-dose screening, colon cancer HCT-15; assay type: cell-based, human; settings: 10 μM
A549/ATCC = assay: NCI one-dose screening, non-small cell lung cancer A549/ATCC; assay type: cell-based, human; settings: 10 μM

CSc1ccc(Sc2cc3c(c4nsnc24)C(=O)c2ccccc2C3=O)cc1 [C43, 4-(4-(methylthio)phenylthio)anthra[2,1-c] [1,2,5]thiadiazol-6,11-dione]
Growth Percent UACC-257 (UACC-257): 109.51% | Growth Percent SK-MEL-2 (SK-MEL-2): 89.27% | Growth Percent HOP-92 (HOP-92): 04.31% | Growth Percent NCI-H23 (NCI-H23): 81.49% | Growth Percent K562 (K562cell line): 67.50% | Growth Percent NCI-H460 (NCI-H460): 106.20% | Growth Percent HT29 (HT29): 102.26% | Growth Percent UO-31 (UO-31): 67.56% | Growth Percent EKVX (EKVX): 113.82% | Growth Percent MDA-MB-435 (MDA, -MB-435): 118.40% | IC50 [1]: > 15 µM | Growth Percent MDA-MB-468 (MDA-MB-468): 82.25% | Growth Percent A498 [2]: 56.04% | Growth Percent NCI/ADR-RES (NCl/ADR-RES): 91.79% | Growth Percent 786-0 (786-O): 109.83% | Growth Percent NCI-H522 (NCI-H522): 95.39% | Growth Percent OVCAR-3 (OVCAR-3): 102.89% | Growth Percent MOLT-4 (MOLT-4): 59.93% | Growth Percent UACC-62 (UACC-62): 110.99% | Growth Percent SK-MEL-28 (SK-MEL-28): 119.66% | Growth Percent SR (SR): 96.31% | Growth Percent PC-3 (PC-3): 78.37% | Growth Percent IGROV1 (IGROV1): 95.67% | Growth Percent BT-549 (BT-549): 107.82% | Growth Percent SNB-75 (SNB-75): 75.08% | Growth Percent LOX IMVI (LOX IMVI): 68.98% | Growth Percent SF-539 (SF-539): 96.48% | Growth Percent MALME-3M (MALME-3M): 104.58% | Growth Percent SF-268 (SF-268): 89.67% | Growth Percent HS 578T (HS 578-T): 96.47% | Growth Percent OVCAR-5 (OVCAR-5): 108.31% | Growth Percent DU145 (DU145): 101.05% | Growth Percent SNB-19 (SNB-19): 101.61% | Growth Percent CAKI-1 (CAKI-1): 99.44% | Growth Percent NCI-H226 (NCI-H226): 79.69% | Growth Percent HCC-2998 (HCC-2998): 111.01% | Growth Percent HOP-62 (HOP-62): 102.09% | Growth Percent KM12 (KM12): 100.42% | Growth Percent SK-OV-3 (SK-OV-3): 102.46% | Growth Percent TK-10 (TK-10): 128.10% | Growth Percent ACHN (ACHN): 103.64% | Growth Percent SK-MEL-5 (SK-MEL-5): 101.45% | Growth Percent T-47D (T-47D): 86.56% | Growth Percent OVCAR-8 (OVCAR-8): 97.37% | Growth Percent SN12C (SN12C): 98.04% | Growth Percent HL-60(TB) (HL-60, TB): 105.25% | Growth Percent U251 (U251): 103.89% | Growth Percent HCT-116 (HCT-116): 101.97% | Growth Percent RXF 393 (RXF, 393): 106.98% | Growth Percent MDA-MB-231/ATCC (MDA-MB-231/ATCC): 78.80% | Growth Percent Delta (human tumor cell lines; delta over all cell lines): 40.76% | Growth Percent Mean (human tumor cell lines; mean over all cell lines): 96.80% | Growth Percent Range (human tumor cell lines; range over all cell lines): 72.06% | Growth Percent M14 (M14): 107.55% | Growth Percent RPMI-8226 (PRMI-8226 cell line): 88.58% | Growth Percent COLO 205 (COLO 205): 117.30% | Growth Percent SF-295 (SF-295): 98.897% | Growth Percent MCF7 (MCF7): 82.87% | Growth Percent HCT-15 (HCT-15): 111.56% | Growth Percent A549/ATCC (A549/ATCC): 104.69%
